26 molecules from PubChem BioAssay (NCI) can be followed below.

Holding throughout (experiment): growth of human tumour cells (NCI), 48 h
Assay [1] relates to T-47D breast.
Assay [2] relates to UO-31 renal.
The test system of assay [3] is A498 renal.
Assay [4] concerns HOP-62 NSCLC.
Assay [5] deals with PC-3 prostate.
Assay [6] concerns IGROV1 ovarian.
For assay [7], the system named is SK-MEL-2 melanoma.
Assay [8] has as its system A549 NSCLC.
In assay [9] the test system is MCF7 breast.
The subject of assay [10] is U251 CNS.
Assay [11] deals with NCI-H23 lung.

The structures appear in SMILES notation.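 Briefly, cells in 96-well plates were exposed to five compound concentrations for 48 h, and endpoints were estimated by linear interpolation. TGI: total growth inhibition.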 Where a SMILES comes first, the peptide text is derived from it. Bridges are numbered along the chain shown (N, C = ends). [ ]: non-standard residue; d: D form. Aib = CC(C)(N)C(=O)O; βAla = NCCC(=O)O

With `Oc1c(Br)cc(/C=C/c2ccnc(/C=C/c3cc(Br)c(O)c(Br)c3)c2)cc1Br`, the TGI in assay [1] is 52.1 µM; in assay [2], 35.4 µM; in assay [3] it was 54.4 µM; in assay [4] it was over 100 µM; in assay [5] it was 39 µM; in assay [6], over 100 µM. Also, the TGI in assay [7] stood at 34.4 µM; in assay [8], 77 µM; in assay [9], 60.3 µM; in [10], 30.8 µM.

For `O=C(O)c1ccccc1C(=O)NCC1S(=O)(=O)OCCOS1(=O)=O`, the TGI in assay [1], in [2], in assay [3], in [4], in assay [5] and in [6] was over 100 µM in each case. Moreover, the TGI in [7], in [8], in assay [11], in assay [9] and in assay [10] was over 100 µM each time.

As to `Cc1ccc(O)c(C(c2cccc(C(c3cc(C)ccc3O)c3cc(C)ccc3O)c2)c2cc(C)ccc2O)c1`, the TGI in assay [1] worked out at 4.45 µM; in assay [2] it was 3.34 µM; in assay [3] it was 2.97 µM; in [4], 4.04 µM; in assay [5], 3.29 µM; in assay [6] it was 3.02 µM. For the same molecule, the TGI in assay [7] worked out at 4.61 µM; in assay [8], 4 µM; in [11], 3.18 µM; in assay [9] it was 3.18 µM; in assay [10] it was 3.32 µM.

For `COC(=O)CCC(=O)c1ccc2c(c1)CCC2`, the TGI in assay [1], in [2], in assay [3], in assay [4], in assay [5] and in assay [6] was over 100 µM each time. The TGI in assay [7], in assay [8], in assay [11], in assay [9] and in [10] was over 100 µM in each case.

As to `Cc1[nH]c(=O)nc2nc3cc(Cl)cc(Cl)c3c(NC(C)(CO)CO)c12`, the TGI is over 100 µM in assay [1]; over 100 µM in assay [2]; 99.4 µM in assay [3]; 83.7 µM in assay [4]; over 100 µM in assay [5]; over 100 µM in assay [6]. For the same molecule, the TGI was over 100 µM in assay [7]; over 100 µM in assay [8]; over 100 µM in assay [11]; over 100 µM in assay [9]; 28.8 µM in assay [10].

With `COc1ccc(S(=O)(=O)N2C(=O)CCC2C(=O)NC(N)=O)cc1` (configuration not stated), the TGI in [1], in assay [2], in assay [3], in assay [4], in [5] and in assay [6] was over 100 µM each time. Besides, the TGI in assay [7], in assay [8], in assay [11], in assay [9] and in [10] was over 100 µM throughout.

For the molecule `CN1C(=O)C2(C)SC1(c1ccccc1)C1C(=O)N(c3ccccc3)C(=O)C12` (configuration not stated), the TGI in [1], in assay [2], in assay [3], in assay [4], in assay [5] and in [6] was over 100 µM throughout. Also, the TGI in assay [7], in assay [8], in [11], in [9] and in assay [10] was over 100 µM in each case.

Consider `Nc1nc(Cl)cc(NCC2(O)CCC2)n1`, for which the TGI in [1], in assay [2], in assay [3], in [4], in assay [5] and in assay [6] was over 100 µM throughout. Further, the TGI in [7], in assay [8], in [11], in assay [9] and in assay [10] was over 100 µM throughout.

Regarding `CNC(=O)C(C)NC(=O)C(Cc1ccccc1)NC(=O)c1ccccc1` (configuration not stated), the TGI in assay [1], in assay [2], in assay [3], in assay [4], in [5] and in assay [6] was over 100 µM each time. Moreover, the TGI in assay [7], in assay [8], in assay [11], in assay [9] and in assay [10] was over 100 µM each time.

On to `COc1ccc(C2SC(N)=Nc3c2c(C)nn3C(=O)c2ccccc2O)cc1OC` (configuration not stated), for which the TGI in assay [1], in [2], in assay [3], in assay [4], in [5] and in [6] was over 10 µM each time. Moreover, the TGI in [7], in [8], in assay [11], in assay [9] and in [10] was over 10 µM in each case.

With `CCN1CCC(O)(c2ccc(Oc3ccc(Cl)cc3)cc2)C(C(=O)c2ccc(Oc3ccc(Cl)cc3)cc2)C1` (configuration not stated), the TGI worked out at 36.6 µM in assay [1]; 28.1 µM in assay [2]; 23.4 µM in [3]; 21.3 µM in assay [4]; 21.3 µM in [5]; 23.5 µM in assay [6]. The TGI in assay [7] stood at 36.9 µM; in assay [8] it was 20.3 µM; in assay [11], 25.7 µM; in assay [9], 19.9 µM.

For the molecule `CC1(C)NC(=O)C(NC(=O)C(N)CC(=O)O)CCCCNC(=O)CCNC1=O` (configuration not stated) (H-DK[Aib][βAla]; lactam 2-C; configuration not given here), the TGI in assay [1], in assay [2], in [3], in [4], in assay [5] and in [6] was over 100 µM throughout. In addition, the TGI in assay [7], in [8], in [11], in assay [9] and in assay [10] was over 100 µM in each case.

Regarding `COc1ccc(C(CC2(c3ccc(OC)cc3)SCCCS2)NC(C)=O)cc1` (configuration not stated), the TGI in assay [1] is 66.5 µM; in [2] it was over 100 µM; in [3], over 100 µM; in assay [4] it was over 100 µM; in [5], 69 µM; in assay [6], over 100 µM. The TGI in [7], in [8], in [11], in assay [9] and in assay [10] was over 100 µM in each case.

With `FC1(F)[Se]C2C3CCC(C3)C2C1(F)F` (configuration not stated), the TGI in [1], in assay [2], in [3], in assay [4], in assay [5] and in [6] was over 100 µM in each case. In addition, the TGI in assay [7], in assay [8], in assay [9] and in [10] was over 100 µM in each case.

`CN=C1Nc2ccccc2C(=O)N2CSCC12` (configuration not stated): the TGI in assay [1], in assay [2], in assay [3], in assay [4], in assay [5] and in [6] was over 100 µM each time. Further, the TGI in assay [7], in [8], in assay [9] and in assay [10] was over 100 µM throughout.

With `O=C(Nc1ccccc1)c1cc(S(=O)(=O)Nc2n[nH]c(=O)n2-c2ccccc2)c(S)cc1Cl`, the TGI in [1], in assay [2], in [3], in assay [5], in assay [6] and in assay [7] was over 100 µM each time. The TGI in assay [8], in assay [9] and in [10] was over 100 µM in each case.

Consider `COc1cccc(/C=N/n2c(Cc3ccccc3)n[nH]c2=O)c1`, for which the TGI in assay [1], in [2], in assay [3], in [4], in [5] and in assay [7] was over 100 µM in each case. Also, the TGI in [8], in assay [11], in [9] and in assay [10] was over 100 µM in each case.

For the molecule `CCOC(=O)C1(C#N)OC(=O)c2cnccc21` (configuration not stated), the TGI in [1], in assay [2], in assay [3], in [5], in assay [6] and in assay [7] was over 100 µM throughout. Also, the TGI in [8], in [11], in assay [9] and in [10] was over 100 µM in each case.

For `Cc1cc(S(=O)(=O)NC2=NCc3nc4ccccc4n32)c(S)cc1Cl`, the TGI in [1] turned out to be 50.3 µM; in [2] it was 63.6 µM; in assay [3], 70.7 µM; in [5] it was 55.6 µM; in assay [6] it was 69.7 µM; in [7], 29.2 µM. The values for the TGI in assay [8], in assay [9] and in assay [10] were 83.2 µM, 70.1 µM and over 100 µM, respectively.

Consider `CCOC1OC(COC(=O)C(C)(C)C)C(O)CC1n1cc(C)c(=O)[nH]c1=O` (configuration not stated), for which the TGI in assay [1], in [2], in assay [3], in assay [5], in [6] and in [7] was over 100 µM throughout. Further, the TGI in assay [8], in assay [11], in [9] and in [10] was over 100 µM each time.

On to `CCOC(=O)c1nc2cc(C(F)(F)F)ccc2nc1Oc1ccc(C#N)cc1`, for which the TGI in assay [1], in assay [2], in assay [3], in assay [5], in assay [6] and in assay [7] was over 100 µM each time. The TGI in assay [8], in [9] and in assay [10] was over 100 µM throughout.

For the molecule `CC(=O)OC[C@H]1CN(OC(C)=O)C[C@@H](n2cc(C)c(=O)[nH]c2=O)O1`, the TGI in [1], in assay [2], in assay [3], in [4], in assay [5] and in [6] was over 100 µM in each case. Besides, the TGI in assay [7], in assay [8], in [9] and in assay [10] was over 100 µM in each case.

With `O=c1oc2ccc3ccccc3c2cc1-c1nnc(Nc2ccccc2)s1`, the TGI in [1] is over 100 µM; in [2], 39.4 µM; in assay [3], 22.4 µM; in assay [5] it was 36.6 µM; in [7], 34.7 µM; in [8], 59 µM. Further, the TGI in [11] was 98.3 µM; in assay [9], over 100 µM; in assay [10] it was 21.3 µM.

As for `Cc1cc(S(=O)(=O)Nc2n[nH]c(-c3ccc(Cl)cc3)n2)c(SSc2cc(Cl)c(C)cc2S(=O)(=O)Nc2n[nH]c(-c3ccc(Cl)cc3)n2)cc1Cl`, the TGI was 42.2 µM in [1]; 81.9 µM in assay [2]; 59.1 µM in assay [3]; over 100 µM in assay [4]; 84.6 µM in assay [5]; 69.2 µM in assay [6]. The TGI in [8] was over 100 µM; in assay [11], over 100 µM; in assay [9], over 100 µM; in [10], 78.6 µM.

Turning to `CCOC1CN=C(Nc2cccc3ccccc23)S1` (configuration not stated), the TGI in assay [1], in assay [3], in [4], in assay [5], in [6] and in assay [7] was over 10 µM in each case. Besides, the TGI in assay [8], in assay [11], in assay [9] and in assay [10] was over 10 µM in each case.

Turning to `N#CC(c1ccccc1)N(CCCCCCN(C(=O)c1ccccc1)C(C#N)c1ccccc1)C(=O)c1ccccc1` (configuration not stated), the TGI in assay [1] was over 100 µM; in [2], 46.1 µM; in assay [3] it was 55.9 µM; in [5], over 100 µM; in assay [6], over 100 µM; in assay [7], 66.3 µM. In addition, the TGI is over 100 µM in assay [8], 73.8 µM in assay [11], over 100 µM in assay [9] and over 100 µM in assay [10].
